Laboratory results reported in patent publication US4370331A, “L-Glaucine containing composition for cough relief” (Karl O. Helm Aktiengesellschaft, priority 1977, dated 1983).
Values joined by “and” are separate entries in the source; they are usually repeats but may differ in a detail not shown here. Equal values may be shown once. Where a name gives a salt, the structure may show the parent alone. Read-outs that look alike come from different tables or passages of the source.

How the values were obtained:
[1] = tested on: isolated guinea pig intestine (spasms induced by carbachol); test: Suppression of spasms induced by carbachol in isolated guinea pig intestine; details: Cavia porcellus, read-out: concentration effective against carbachol induced spasms
Excerpt: In further tests it was investigated in what concentrations the active substances being compared suppress spasms induced in isolated guinea pig intestine by carbachol or histamine. […] On the other hand d,l-glaucine was effective against histamine at molar concentrations of only 4×10^-8 to 4×10^-6 and against carbachol at molar concentrations of only 4×10^-7.

mice = test: Toxicity (LD50) in mice by the Wilcox method, Comparative test 7; format: in vivo
Procedure: (§1) The toxicity thresholds of codeine phosphate, of d-glaucine hydrobromide and of d,l-glaucine hydrobromide were determined in mice by the Wilcox method. […] The toxicities of codeine phosphate and d,l-glaucine hydrobromide are about equal.

anti-cough effectiveness = test: Oral anti-cough effectiveness in guinea pigs, 5% acid aerosol, Comparative test 8; format: in vivo; details: 1 h before 10 min exposure to 5% acid aerosol, last 5 minutes measured
cough pulses [2] = test: Citric acid aerosol cough test in guinea pigs, subcutaneous, 30 min (method of Friebel and Reichle), Comparative test 1; format: in vivo; details: s.c.; for ED50: Cavia porcellus, sc, 0.5 h, 30 min after administering, 20% citric acid aerosol, 8 min
Procedure: In order to compare the anti-cough effectiveness of codeine phosphate with the effectiveness of the different isomers of glaucine hydrobromide, the testing method of Friebel and Reichle was used. 60 guinea pigs with weights between 200 and 300 g were divided up into ten groups of different sizes. Before administering the active substance, each animal was subjected, on the same day as the day of test with the active substance, for a period of 8 minutes to an aerosol of 20% citric acid, the animal being confined in a chamber at constant air pressure. During this control test the number of cough pulses was counted with the help of a pressure transmitter. From these measurements an average control value for each group was calculated. After this preliminary control test, there was given subcutaneously to each animal of each group a suspension of the active substance in 1% sodium carboxymethyl cellulose. After 30 minutes each animal was again exposed in the test chamber for 8 minutes to the aerosol of 20% citric acid and the number of cough pressure pulses recorded. The different active substances were administered in increasing doses ranging from 3 mg/kg to 100 mg/kg of body weight. Altogether eight different doses were given. The results were expressed as percent deviation from the average control value for the group on the same day, the deviation being entered in a diagram against the logarithm of the dose administered. From the resulting effectiveness curve, based on the logarithm of the dose, the coefficient of correlation and the ED50 were calculated for each active substance, by the regression analysis method of Downie and Heath (1965). The values obtained for codeine phosphate, for d-glaucine hydrobromide, for d,l-glaucine hydrobromide and for l-glaucine hydrobromide thirty minutes after administering the active substance are summarized in Table I.

intestinal motility = test: Intestinal motility / evacuation action of stomach-intestinal tract of mice (carbon suspension), Comparative test 2; format: in vivo; details: s.c.; for Distance travelled average % (of intestine length): 2 h, control 74.3%, * = significantly different from control (p < 0.05)
Excerpt: One of the most unpleasant side effects of anti-cough medicine containing codeine is constipation and the occurrence of intestinal spasms. A model test for determining the effects of anti-cough active substances on intestinal motility and on the evacuation action of the stomach-intestinaltract of mice was therefore made. After subcutaneous injection of the active substance, each animal was given, through a throat probe, a 10% suspension of carbon in a 5% aqueous slurry of gum arabic. Two hours later the intestine was sectioned and the distance of stomach coecum measured, and also the distance travelled by the carbon, which was expressed as percent of intestine length.
The effects of codeine phosphate, of d-glaucine hydrobromide and of l-glaucine hydrobromide on intestinal motility were determined at different doses. For each dose the average value was calculated for a sufficient number of animals.

[3] = tested on: isolated guinea pig intestines (contractions induced by electric voltages); test: Suppression of electrically induced contractions in isolated guinea pig intestines, Comparative test 4; set-up: electrically induced contractions (Table III): unit not given here
Procedure: In a further series of tests the effects of different doses of codeine phosphate in suppressing contractions induced in isolated guinea pig intestines by electric voltages were tested. For this purpose one electrode was immersed in the solution surrounding the intestinal preparation. The second electrode was connected to the preparation at the attachment point.

coughing centre = test: Coughing reflex by electrical stimulation of upper laryngeal nerves of anaesthetized cats (method of Domenjoz), Comparative test 5; format: in vivo; details: intravenous, anaesthetized cats
Procedure: In a series of tests conducted by the method of Domenjoz, the effects of the different active substances on the coughing centre was examined by electrical stimulation of the upper laryngeal nerves of anaesthetized cats. Electrical stimulation of the nerve produces a coughing reflex and the intention is to reduce this by intravenous injection of the active substance. The minimal effective dose MED is determined by increasing the dose from 0.1 mg/kg of body weight up to 0.3 mg/kg, 1.0 mg/kg, 3.0 mg/kg and 6.0 mg/kg, until the dose is sufficient for completely suppressing the coughing reflex.
In these tests each animal was given, on the one hand, codeine and, on the other hand, at sufficient time intervals also glaucine, so that the ratio of the minimal effective doses of glaucine and codeine can be deduced.

cough pulses [4] = test: Oral citric acid aerosol cough test in guinea pigs, 1 h (equivalent effective doses), Comparative test 6; format: in vivo; details: for Cough pulses percent of control value: 20% citric acid aerosol 8 min
cough pulses [5] = test: Oral citric acid aerosol cough test in guinea pigs, time course 1-24 h, Comparative test 6; format: in vivo; details: codeine phosphate 75, d,l-glaucine hydrobromide 150, hydrochloride 135, embonate 378 mg/kg
Procedure: In a further comparative test, 40 female guinea pigs with body weights between 230 and 500 g were divided into 4 groups and each animal was again subjected to the action of a 20% citric acid aerosol for 8 minutes. From the control values thus obtained the average control value for each group was calculated. Each animal of each group was then given, by means of a throat probe, either 75 mg/kg of codeine phosphate, or 135 mg/kg of d,l-glaucine hydrochloride, or 150 mg/kg of d,1-glaucine hydrobromide, or 378 mg/kg of d,l-glaucine embonate. These doses are the equimolar quantities, based on glaucine. After a period of 1, or 3, or 5, or 24 hours each animal was again subjected for 8 minutes to the action of the citric acid aerosol, and the number of cough pulses during this period was recorded. The values thus obtained were compared with the control values and the percent deviation of the average measured value for each group, from the average control value, was calculated.

[6] = Toxicity (LD50) in mice by the Wilcox method, Comparative test 7; format: in vivo; details: mouse, in vivo
Procedure: as §1

[7] = tested on: isolated guinea pig intestines (contractions induced by electric voltages); test: Suppression of electrically induced contractions in isolated guinea pig intestines, Comparative test 4; details: isolated guinea pig intestine; codeine: increased doses; d-glaucine: higher concentrations than 4×10^-5; d,l-glaucine: 4×10^-5 to 6×10^-5

**Q.** For COc1cc2c(cc1OC)-c1c(OC)c(OC)cc3c1C(C2)N(C)CC3 (racemic) [d,l-glaucine], which minimal effective concentration [1] is on record?
**A.** The minimal effective concentration was 0.4 µM.

**Q.** What about the “toxicity, comparison in words” value (mice) of the same compound?
**A.** Its value is “considerably less toxic than d-glaucine”.

**Q.** With COc1cc2c(cc1OC)-c1c(OC)c(OC)cc3c1[C@@H](C2)N(C)CC3 [1-glaucine-d-tartrate, l-glaucine-d-tartrate] as the compound, how does the “Oral ED50” value (anti-cough effectiveness; 60 min) read?
**A.** The value was 6,8 mg/kg.

**Q.** For COc1ccc2c3c1O[C@H]1[C@@H](O)C=C[C@H]4[C@@H](C2)N(C)CC[C@@]341 [codeine phosphate, reference compound], which ED50 (cough pulses [2]) is on record?
**A.** The ED50 was 20.6 mg/kg.

**Q.** What about the “Distance travelled average % (of intestine length)” value (“Distance travelled average %” below) (intestinal motility; 3 mg/kg) of the same compound?
**A.** The value was 70.4%.

**Q.** What about the “Distance travelled average %” value (intestinal motility; 10 mg/kg) of the same compound?
**A.** The value was 74.3%.

**Q.** What about the “Distance travelled average %” value (intestinal motility; 30 mg/kg) of the same compound?
**A.** The value was 34.8%.

**Q.** What about the “Distance travelled average %” value (intestinal motility; 100 mg/kg) of the same compound?
**A.** The value was 20.6%.

**Q.** And the inhibition at 10 µM ([3]; Cavia porcellus, molar concentration of about 10^-5, read-out: suppression of electrically induced contraction reflexes)?
**A.** The inhibition at 10 µM was roughly 50%.

**Q.** What about the “electrically induced contractions (Table III)” value ([3]; molar concentration 1 × 10^-5) of the same compound?
**A.** The value was 49.

**Q.** And the “electrically induced contractions (Table III)” value ([3]; molar concentration 2 × 10^-5)?
**A.** Its value is 36 and 52.

**Q.** What about the “electrically induced contractions (Table III)” value ([3]; molar concentration 4 × 10^-5) of the same compound?
**A.** Its value is 58.

**Q.** What about the “electrically induced contractions (Table III)” value ([3]; molar concentration 5 × 10^-6) of the same compound?
**A.** Its value is 85 and 51.

**Q.** And the minimal effective dose (coughing centre; Felis catus, read-out: MED (minimal effective dose completely suppressing the coughing reflex))?
**A.** The minimal effective dose was 6 mg/kg.

**Q.** What about the “Duration of cough suppression” value (coughing centre; at MED) of the same compound?
**A.** Its value is 18 to 54 min.

**Q.** What about the “Cough pulses percent of control value” (cough pulses [4]; 50 mg/kg) of the same compound?
**A.** Its value is 37%.

**Q.** And the “Cough pulses percent of control value” (cough pulses [4]; 100 mg/kg)?
**A.** The value was 50%.

**Q.** And the “dose having about the same effect (codeine phosphate vs d,l-glaucine hydrobromide)” value (cough pulses [4]; guinea pigs)?
**A.** Its value is ~75 mg per kg of body weight.

**Q.** What about the “Cough pulses during 8 minutes, percent of control value, after 1 h” value (cough pulses [5]; 1 h) of the same compound?
**A.** Its value is 84%.

**Q.** And the “Cough pulses during 8 minutes, percent of control value, after 3 h” value (cough pulses [5]; 3 h)?
**A.** Its value is 70%.

**Q.** And the “Cough pulses during 8 minutes, percent of control value, after 5 h” value (cough pulses [5]; 5 h)?
**A.** The value was 84%.

**Q.** And the “Cough pulses during 8 minutes, percent of control value, after 24 h” value (cough pulses [5]; 24 h)?
**A.** The value was 95%.

**Q.** What about the LD50 ([6]; po, peroral, read-out: LD50 peroral) of the same compound?
**A.** The LD50 was 640 mg/kg.

**Q.** And the LD50 ([6]; sc, subcutaneous, read-out: LD50 subcutaneous)?
**A.** The LD50 was 230 mg/kg.

**Q.** What about the “toxicity, comparison in words” value (mice) of the same compound?
**A.** Its value is “about equal”.

**Q.** And the “induced spontaneous activity, in words” value [7]?
**A.** Its value is “the spontaneous activity induced by the codeine phosphate itself increases the contractions”.

**Q.** Which ED50 (cough pulses [2]) does the source give for COc1cc2c(cc1OC)-c1c(OC)c(OC)cc3c1[C@@H](C2)N(C)CC3 [l-glaucine hydrobromide] here?
**A.** The ED50 was 31.2 mg/kg.

**Q.** What about the “ED50 value, comparison in words” value (cough pulses [2]; 30 min) of the same compound?
**A.** The value was “considerably lower effective dose ED50 value compared to d-glaucine hydrobromide”.

**Q.** And the “Distance travelled average %” value (intestinal motility; 3 mg/kg)?
**A.** The value was 74.3%.

**Q.** And the “intestinal activity, in words” value (intestinal motility; 10 mg/kg)?
**A.** Its value is “significant increase in intestinal activity”.

**Q.** What about the “Distance travelled average %” value (intestinal motility; 10 mg/kg) of the same compound?
**A.** Its value is 94.3%.

**Q.** What about the “intestinal motility, in words” value (intestinal motility; 30 mg/kg and 100 mg/kg) of the same compound?
**A.** The value was “considerably more than the corresponding values for d-glaucine hydrobromide and codeine phosphate”.

**Q.** What about the “Distance travelled average %” value (intestinal motility; 30 mg/kg) of the same compound?
**A.** Its value is 85.4%.

**Q.** And the “Distance travelled average %” value (intestinal motility; 100 mg/kg)?
**A.** The value was 51.8%.

**Q.** What about the “suppression of electrically induced contraction reflexes, in words” value ([3]; 4×10^-5) of the same compound?
**A.** The value was “more effectively suppressed, compared to what is obtained using d-glaucine hydrobomide”.

**Q.** What about the “suppression of electrically induced contractions, in words” value ([3]; 8×10^-5) of the same compound?
**A.** Its value is “suppressed even more effectively”.

**Q.** And the “electrically induced contractions (Table III)” value ([3]; molar concentration 1 × 10^-5, hydrobromide)?
**A.** Its value is 71 and 74.

**Q.** And the “electrically induced contractions (Table III)” value ([3]; molar concentration 2 × 10^-5, hydrobromide)?
**A.** The value was 64 and 32.

**Q.** What about the “electrically induced contractions (Table III)” value ([3]; molar concentration 4 × 10^-5, hydrobromide) of the same compound?
**A.** The value was 24 and 23.

**Q.** And the “electrically induced contractions (Table III)” value ([3]; molar concentration 8 × 10^-5)?
**A.** Its value is 7.

**Q.** What about the ED50 (anti-cough effectiveness; Cavia porcellus, po, 1 h) of the same compound?
**A.** Its ED50 is 7.21 mg/kg.
